The source of these data is the supplement of paper PMC4862054.

Common to all, as to assay: normalised response (% of control), CellTiter-Glo; higher = more viable cells (100 = DMSO, 0 = benzethonium chloride kill control)
Holding throughout (conditions): incubation time: 72 h

Test [1] has as its system BT-474. The gist of the method:
(§1)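 Normalised signals at single concentrations make up the values. They come from breast cancer cell lines seeded (20 µl suspension) into 384-well plates with compound at 5 concentrations in 10-fold steps over a compound-specific 10,000-fold range, incubated 72 h, and read for CellTox Green fluorescence then CellTiter-Glo luminescence. Each plate was normalised to 0.1 % DMSO (100) and a positive kill control (0).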

In test [2] the test system is CAL-120. The gist of the method: as §1
Test [3] has as its system Hs578T. In a few lines:
as §1

The test system of test [4] is MDA-MB-453. In a few lines: as §1
In test [5] the test system is MFM-223. The gist of the method:
as §1

For test [6], the system named is SK-BR-3. The gist of the method:
as §1

Regarding `CC[C@@]1(O)C(=O)OCc2c1cc1n(c2=O)Cc2cc3c(CN(C)C)c(O)ccc3nc2-1` [Topotecan] (100 nM), the normalised response in test [1] turned out to be 91.9%; in test [2], 95.9%; in test [3] it was 101%; in test [4], 133%; in test [5] it was 97.4%; in test [6], 66.3%.
